{"source": "ChEMBL document CHEMBL5030507", "about": "“Structure-Based Design of a Selective Class I Histone Deacetylase (HDAC) Near-Infrared (NIR) Probe for Epigenetic Regulation Detection in Triple-Negative Breast Cancer (TNBC)” (J Med Chem, 2021)", "key": {"MDA-MB-231": {"system": "MDA-MB-231", "assay": "Antiproliferative activity against triple-negative human MDA-MB-231 cells assessed as cell growth inhibition incubated for 72 hrs by CCK8 assay", "format": "functional"}, "Histone deacetylase 7": {"molecular_target": "T1, Histone deacetylase 7 (Homo sapiens, UniProt Q8WUI4)", "T1 sequence (Q8WUI4 whole entry)": "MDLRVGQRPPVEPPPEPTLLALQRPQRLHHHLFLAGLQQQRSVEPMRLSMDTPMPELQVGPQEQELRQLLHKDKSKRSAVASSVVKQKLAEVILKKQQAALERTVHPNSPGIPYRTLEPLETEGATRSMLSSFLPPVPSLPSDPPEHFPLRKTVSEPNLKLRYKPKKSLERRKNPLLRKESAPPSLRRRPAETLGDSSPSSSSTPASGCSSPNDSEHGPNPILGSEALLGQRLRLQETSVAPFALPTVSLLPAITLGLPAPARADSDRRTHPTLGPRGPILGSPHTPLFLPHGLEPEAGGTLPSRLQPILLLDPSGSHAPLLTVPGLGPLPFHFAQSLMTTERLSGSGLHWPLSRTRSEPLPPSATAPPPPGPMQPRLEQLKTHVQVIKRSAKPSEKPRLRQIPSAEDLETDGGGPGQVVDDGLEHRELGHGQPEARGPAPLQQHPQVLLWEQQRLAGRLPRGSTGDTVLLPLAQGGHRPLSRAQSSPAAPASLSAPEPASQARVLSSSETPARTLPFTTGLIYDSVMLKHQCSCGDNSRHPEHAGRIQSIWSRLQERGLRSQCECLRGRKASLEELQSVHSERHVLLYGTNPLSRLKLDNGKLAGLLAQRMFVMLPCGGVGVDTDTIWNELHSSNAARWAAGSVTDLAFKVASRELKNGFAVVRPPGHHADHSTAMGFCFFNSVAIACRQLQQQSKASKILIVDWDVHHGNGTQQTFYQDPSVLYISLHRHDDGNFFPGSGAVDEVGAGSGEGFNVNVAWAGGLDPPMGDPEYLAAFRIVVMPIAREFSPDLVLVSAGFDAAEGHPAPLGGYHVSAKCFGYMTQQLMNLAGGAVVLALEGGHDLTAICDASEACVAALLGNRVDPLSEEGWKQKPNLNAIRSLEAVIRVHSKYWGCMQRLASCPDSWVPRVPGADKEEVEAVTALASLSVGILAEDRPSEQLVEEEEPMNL", "assay": "Inhibition of recombinant human N-terminal GST-tagged HDAC7 expressed in baculovirus infected Sf9 insect cells using fluorogenic substrate measured after 60 mins by FRET assay"}, "[1]": {"molecular_target": "Histone deacetylase 3/Nuclear receptor corepressor 2 (HDAC3/NCoR2) (Homo sapiens, UniProt O15379)", "sequence (O15379 whole entry, the tested form may be a part)": "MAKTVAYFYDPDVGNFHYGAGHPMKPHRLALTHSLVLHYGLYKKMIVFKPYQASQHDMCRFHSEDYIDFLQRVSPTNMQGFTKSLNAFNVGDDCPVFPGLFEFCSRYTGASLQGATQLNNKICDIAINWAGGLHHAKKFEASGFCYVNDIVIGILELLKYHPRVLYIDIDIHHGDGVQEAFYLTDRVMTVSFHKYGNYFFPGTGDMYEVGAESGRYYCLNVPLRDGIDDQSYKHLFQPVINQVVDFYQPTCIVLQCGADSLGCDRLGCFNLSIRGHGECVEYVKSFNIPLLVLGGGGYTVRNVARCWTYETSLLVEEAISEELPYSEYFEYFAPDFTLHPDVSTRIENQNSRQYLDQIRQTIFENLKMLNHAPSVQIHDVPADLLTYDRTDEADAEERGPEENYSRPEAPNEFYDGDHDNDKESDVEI", "sequence (Q9Y618 whole entry, further chain, the tested form may be a part)": "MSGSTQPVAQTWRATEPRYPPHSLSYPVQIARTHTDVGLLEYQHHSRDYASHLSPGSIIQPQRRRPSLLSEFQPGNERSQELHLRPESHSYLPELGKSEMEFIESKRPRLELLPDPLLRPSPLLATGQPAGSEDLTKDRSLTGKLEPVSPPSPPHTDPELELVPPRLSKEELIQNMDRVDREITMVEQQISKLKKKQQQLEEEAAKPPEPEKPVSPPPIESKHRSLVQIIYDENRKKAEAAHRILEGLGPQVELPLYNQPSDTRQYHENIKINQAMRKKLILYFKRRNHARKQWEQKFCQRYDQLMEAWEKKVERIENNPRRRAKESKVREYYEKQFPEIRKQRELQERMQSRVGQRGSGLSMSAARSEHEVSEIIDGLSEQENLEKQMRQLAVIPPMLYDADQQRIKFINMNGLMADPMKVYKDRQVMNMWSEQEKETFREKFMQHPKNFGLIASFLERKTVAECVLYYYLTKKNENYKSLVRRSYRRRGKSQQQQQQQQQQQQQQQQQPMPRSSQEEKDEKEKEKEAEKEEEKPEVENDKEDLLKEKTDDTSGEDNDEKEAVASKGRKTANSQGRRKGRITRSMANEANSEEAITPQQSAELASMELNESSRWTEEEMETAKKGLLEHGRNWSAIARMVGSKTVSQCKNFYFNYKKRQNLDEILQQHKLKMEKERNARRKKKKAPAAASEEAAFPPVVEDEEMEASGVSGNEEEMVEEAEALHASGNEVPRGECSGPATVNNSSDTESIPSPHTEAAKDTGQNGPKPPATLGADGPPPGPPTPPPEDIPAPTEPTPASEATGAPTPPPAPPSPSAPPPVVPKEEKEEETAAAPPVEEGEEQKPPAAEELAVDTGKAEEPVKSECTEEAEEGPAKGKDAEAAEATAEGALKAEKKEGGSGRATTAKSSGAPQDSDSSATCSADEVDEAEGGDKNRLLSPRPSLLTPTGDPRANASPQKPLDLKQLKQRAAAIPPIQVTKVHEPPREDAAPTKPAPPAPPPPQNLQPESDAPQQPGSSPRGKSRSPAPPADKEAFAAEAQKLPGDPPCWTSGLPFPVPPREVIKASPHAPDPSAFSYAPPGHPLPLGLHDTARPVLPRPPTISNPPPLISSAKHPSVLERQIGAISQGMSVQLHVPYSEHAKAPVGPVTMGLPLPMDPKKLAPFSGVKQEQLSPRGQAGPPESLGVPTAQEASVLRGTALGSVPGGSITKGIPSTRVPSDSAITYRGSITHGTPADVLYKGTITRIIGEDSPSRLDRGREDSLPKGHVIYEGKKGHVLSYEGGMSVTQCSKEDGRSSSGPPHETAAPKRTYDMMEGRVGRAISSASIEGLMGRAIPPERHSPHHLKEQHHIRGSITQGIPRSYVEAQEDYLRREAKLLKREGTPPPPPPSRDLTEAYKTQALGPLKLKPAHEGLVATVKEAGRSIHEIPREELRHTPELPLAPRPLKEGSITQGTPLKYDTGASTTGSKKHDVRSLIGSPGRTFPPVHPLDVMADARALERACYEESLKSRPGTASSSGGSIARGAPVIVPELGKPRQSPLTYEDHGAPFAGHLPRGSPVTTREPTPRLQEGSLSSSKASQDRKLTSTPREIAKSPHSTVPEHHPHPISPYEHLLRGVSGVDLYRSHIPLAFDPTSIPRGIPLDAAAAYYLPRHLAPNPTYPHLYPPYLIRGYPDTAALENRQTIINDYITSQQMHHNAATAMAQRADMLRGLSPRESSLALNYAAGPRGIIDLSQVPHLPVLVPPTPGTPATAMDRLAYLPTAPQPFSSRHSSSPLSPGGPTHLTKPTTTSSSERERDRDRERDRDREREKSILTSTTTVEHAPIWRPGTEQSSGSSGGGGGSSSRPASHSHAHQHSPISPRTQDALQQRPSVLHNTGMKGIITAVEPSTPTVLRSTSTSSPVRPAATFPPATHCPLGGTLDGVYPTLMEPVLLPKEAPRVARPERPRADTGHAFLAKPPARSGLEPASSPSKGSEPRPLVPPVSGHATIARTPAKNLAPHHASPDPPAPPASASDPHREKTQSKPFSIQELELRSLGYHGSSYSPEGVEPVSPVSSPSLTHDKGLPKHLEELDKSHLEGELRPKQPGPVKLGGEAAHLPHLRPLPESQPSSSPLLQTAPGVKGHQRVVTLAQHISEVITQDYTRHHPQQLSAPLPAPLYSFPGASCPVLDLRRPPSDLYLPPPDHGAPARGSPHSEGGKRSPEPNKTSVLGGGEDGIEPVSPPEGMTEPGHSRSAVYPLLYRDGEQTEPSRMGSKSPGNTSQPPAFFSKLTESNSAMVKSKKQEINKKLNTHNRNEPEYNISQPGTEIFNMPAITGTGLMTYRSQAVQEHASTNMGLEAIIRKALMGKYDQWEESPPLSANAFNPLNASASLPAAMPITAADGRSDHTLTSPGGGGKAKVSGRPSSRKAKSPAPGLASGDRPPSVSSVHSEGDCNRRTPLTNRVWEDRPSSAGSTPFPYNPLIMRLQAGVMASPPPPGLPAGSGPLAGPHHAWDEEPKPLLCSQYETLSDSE", "assay": "Inhibition of C-terminal His-tagged recombinant human HDAC3 (1 to 428 residues)/N-terminal GST-tagged recombinant human NCoR2 (395 to 489 residues) co-expressed in baculovirus infected Sf9 cells using fluorometric substrate measured after 60 mins by FRET assay"}, "Histone deacetylase 11": {"molecular_target": "T2, Histone deacetylase 11 (Homo sapiens, UniProt Q96DB2)", "T2 sequence (Q96DB2 whole entry)": "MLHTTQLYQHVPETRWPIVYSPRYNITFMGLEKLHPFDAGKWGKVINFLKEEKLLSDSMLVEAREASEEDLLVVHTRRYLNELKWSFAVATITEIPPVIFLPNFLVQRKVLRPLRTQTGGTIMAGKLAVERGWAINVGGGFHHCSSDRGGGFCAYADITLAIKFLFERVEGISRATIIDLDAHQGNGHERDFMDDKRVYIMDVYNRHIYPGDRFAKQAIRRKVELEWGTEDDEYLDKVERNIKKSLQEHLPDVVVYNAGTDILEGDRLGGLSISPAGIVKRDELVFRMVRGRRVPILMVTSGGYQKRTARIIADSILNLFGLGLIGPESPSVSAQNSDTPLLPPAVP", "assay": "Inhibition of recombinant human full length HDAC11 expressed in baculovirus infected Sf9 cells measured after 60 mins by FRET assay"}, "[2]": {"assay": "Selectivity index, ratio of GI50 for cytotoxicity against human WI-38 cells to GI50 for antiproliferative activity against triple-negative human MDA-MB-231 cells", "format": "toxicity, cell-based", "settings": "WI-38 cells versus MDA-MB-231 cells, read-out: RatioGI50"}, "Histone deacetylase 4": {"molecular_target": "Histone deacetylase 4 (Homo sapiens, UniProt P56524)", "sequence (P56524 whole entry, the tested form may be a part)": "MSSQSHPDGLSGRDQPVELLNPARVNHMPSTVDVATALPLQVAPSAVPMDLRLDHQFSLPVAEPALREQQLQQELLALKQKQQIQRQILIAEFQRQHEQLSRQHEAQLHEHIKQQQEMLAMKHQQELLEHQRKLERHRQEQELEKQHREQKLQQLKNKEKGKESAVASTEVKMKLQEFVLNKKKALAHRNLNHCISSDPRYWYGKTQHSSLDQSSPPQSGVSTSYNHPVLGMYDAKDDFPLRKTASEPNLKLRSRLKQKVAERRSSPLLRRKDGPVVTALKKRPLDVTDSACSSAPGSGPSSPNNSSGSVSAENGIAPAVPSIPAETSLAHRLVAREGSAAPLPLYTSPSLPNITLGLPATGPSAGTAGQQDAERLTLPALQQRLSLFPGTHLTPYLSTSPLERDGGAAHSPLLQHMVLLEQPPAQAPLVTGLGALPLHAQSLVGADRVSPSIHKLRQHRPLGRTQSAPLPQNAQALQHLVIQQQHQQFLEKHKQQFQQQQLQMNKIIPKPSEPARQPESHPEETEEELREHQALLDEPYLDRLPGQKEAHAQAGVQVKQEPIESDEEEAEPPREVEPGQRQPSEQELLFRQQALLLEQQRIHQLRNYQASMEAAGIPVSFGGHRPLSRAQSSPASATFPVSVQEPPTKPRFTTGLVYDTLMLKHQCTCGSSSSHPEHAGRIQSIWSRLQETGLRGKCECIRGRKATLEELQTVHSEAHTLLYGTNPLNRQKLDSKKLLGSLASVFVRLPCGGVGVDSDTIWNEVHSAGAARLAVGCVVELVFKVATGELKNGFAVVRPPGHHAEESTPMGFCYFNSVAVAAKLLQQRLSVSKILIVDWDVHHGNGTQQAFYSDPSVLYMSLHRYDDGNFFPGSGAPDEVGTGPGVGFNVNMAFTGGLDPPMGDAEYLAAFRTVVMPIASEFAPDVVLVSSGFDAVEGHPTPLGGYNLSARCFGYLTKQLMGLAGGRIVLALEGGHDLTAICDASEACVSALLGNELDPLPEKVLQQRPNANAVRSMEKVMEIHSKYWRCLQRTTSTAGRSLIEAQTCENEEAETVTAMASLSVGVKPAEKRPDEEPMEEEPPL", "assay": "Inhibition of recombinant human N-terminal GST-tagged/C-terminal His-tagged HDAC4 (627 to 1084 residues) expressed in baculovirus infected Sf9 insect cells using fluorogenic substrate measured after 60 mins by FRET assay"}, "[3]": {"assay": "Cytotoxicity against human WI-38 cells assessed as cell growth inhibition incubated for 72 hrs by CCK8 assay", "format": "cell-based"}, "Histone deacetylase 8": {"molecular_target": "T3, Histone deacetylase 8 (Homo sapiens, UniProt Q9BY41)", "T3 sequence (Q9BY41 whole entry)": "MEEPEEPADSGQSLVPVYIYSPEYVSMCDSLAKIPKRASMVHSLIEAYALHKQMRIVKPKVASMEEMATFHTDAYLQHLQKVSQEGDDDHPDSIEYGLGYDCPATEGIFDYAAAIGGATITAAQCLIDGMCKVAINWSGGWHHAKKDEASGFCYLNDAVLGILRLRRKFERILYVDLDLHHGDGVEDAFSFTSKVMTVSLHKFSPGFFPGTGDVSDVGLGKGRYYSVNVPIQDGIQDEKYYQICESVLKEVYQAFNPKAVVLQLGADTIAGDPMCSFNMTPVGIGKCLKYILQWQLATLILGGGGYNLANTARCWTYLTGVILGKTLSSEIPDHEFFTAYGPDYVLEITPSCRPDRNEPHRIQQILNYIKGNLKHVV", "assay": "Inhibition of recombinant human full length C-terminal His-tagged HDAC8 expressed in baculovirus infected Sf9 insect cells using fluorometric substrate measured after 60 mins by FRET assay"}, "Histone deacetylase 1": {"molecular_target": "Histone deacetylase 1 (Homo sapiens, UniProt Q13547)", "assay": "Inhibition of recombinant human C-terminal FLAG/His-tagged HDAC1 (1 to 482 residues) expressed in Sf9 insect cells using fluorometric substrate measured after 60 mins by FRET assay"}, "Histone deacetylase 5": {"molecular_target": "Histone deacetylase 5 (Homo sapiens, UniProt Q9UQL6)", "sequence (Q9UQL6 whole entry)": "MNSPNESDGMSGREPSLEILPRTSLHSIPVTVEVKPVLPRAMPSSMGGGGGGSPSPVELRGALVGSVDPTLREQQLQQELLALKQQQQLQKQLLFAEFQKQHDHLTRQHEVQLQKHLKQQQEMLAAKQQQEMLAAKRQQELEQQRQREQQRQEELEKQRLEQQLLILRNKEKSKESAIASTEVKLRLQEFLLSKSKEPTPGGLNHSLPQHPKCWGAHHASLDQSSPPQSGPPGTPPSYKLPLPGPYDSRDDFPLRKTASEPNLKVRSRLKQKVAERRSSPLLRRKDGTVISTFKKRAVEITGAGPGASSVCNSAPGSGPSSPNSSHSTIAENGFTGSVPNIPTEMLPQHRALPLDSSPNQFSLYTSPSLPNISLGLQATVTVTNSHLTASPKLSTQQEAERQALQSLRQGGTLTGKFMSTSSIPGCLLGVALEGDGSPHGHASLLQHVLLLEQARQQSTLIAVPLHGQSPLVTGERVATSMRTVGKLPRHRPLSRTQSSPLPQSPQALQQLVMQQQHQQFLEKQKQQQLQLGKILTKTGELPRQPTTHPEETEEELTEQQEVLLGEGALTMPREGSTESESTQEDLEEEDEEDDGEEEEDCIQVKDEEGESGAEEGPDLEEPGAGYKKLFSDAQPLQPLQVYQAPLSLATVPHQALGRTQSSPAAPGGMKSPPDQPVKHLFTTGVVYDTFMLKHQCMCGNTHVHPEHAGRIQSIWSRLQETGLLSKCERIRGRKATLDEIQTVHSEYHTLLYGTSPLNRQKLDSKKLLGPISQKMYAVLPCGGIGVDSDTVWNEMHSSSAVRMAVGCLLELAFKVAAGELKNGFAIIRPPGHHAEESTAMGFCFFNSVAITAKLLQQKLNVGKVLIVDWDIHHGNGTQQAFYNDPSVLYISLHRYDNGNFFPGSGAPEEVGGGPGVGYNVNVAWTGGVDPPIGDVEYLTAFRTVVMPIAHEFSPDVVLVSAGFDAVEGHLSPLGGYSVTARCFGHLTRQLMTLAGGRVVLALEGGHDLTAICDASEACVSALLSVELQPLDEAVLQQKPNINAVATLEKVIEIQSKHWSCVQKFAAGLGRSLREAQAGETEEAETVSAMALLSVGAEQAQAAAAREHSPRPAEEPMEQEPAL", "assay": "Inhibition of recombinant human full length N-terminal GST-tagged HDAC5 expressed in baculovirus infected Sf9 insect cells using fluorogenic substrate measured after 60 mins by FRET assay"}}, "data": [{"smiles": "C/C=C1\\NC(=O)c2csc(n2)CNC(=O)C[C@@H](/C=C/CCSSCCCCCCC)OC(=O)[C@H](CCCCN)NC1=O", "values": [{"measurement": "GI50", "setting": "MDA-MB-231", "result": 0.0119, "unit": "µM"}, {"measurement": "IC50", "setting": "Histone deacetylase 7", "result": "> 10", "unit": "µM"}, {"measurement": "IC50", "setting": "[1]", "result": 0.0103, "unit": "µM"}, {"measurement": "IC50", "setting": "Histone deacetylase 11", "result": "> 10", "unit": "µM"}, {"measurement": "selectivity ratio", "setting": "[2]", "result": 194}, {"measurement": "IC50", "setting": "Histone deacetylase 4", "result": "> 10", "unit": "µM"}, {"measurement": "GI50 at 72 h", "setting": "[3]", "result": 2.32, "unit": "µM"}, {"measurement": "IC50", "setting": "Histone deacetylase 8", "result": "> 10", "unit": "µM"}, {"measurement": "IC50", "setting": "Histone deacetylase 1", "result": 0.0058, "unit": "µM"}, {"measurement": "IC50", "setting": "Histone deacetylase 5", "result": "> 10", "unit": "µM"}]}]}
